For one experiment, the system named is NF-κB pathway. Kind of experiment: TNF-α assay (THP-1 cells differentiated to macrophages with IFN-γ, NF-κB pathway activated with LPS; ELISA). It is filed as cell-based, Human. The following applies: Homo sapiens, THP-1, THP-1 macrophages, compound 30 min, 50 ng/mL LPS 3 hours. A digest of the protocol: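 TNF-α release measured by ELISA after 3 h stimulation with 50 ng/mL LPS, following 30 min compound pretreatment (37 °C, no FBS). Cells were THP-1 macrophages primed with IFN-γ 25 ng/mL for 24 h. IC50 derived by logistic curve fit.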
(In an ELISA, binding on a coated surface is turned into a signal by an enzyme label.)

The target of another experiment is T1, NLRP3 inflammasome (Homo sapiens, UniProt Q96P20).
T1 construct: IL-1beta HTRF
T1 sequence (Q96P20 whole entry): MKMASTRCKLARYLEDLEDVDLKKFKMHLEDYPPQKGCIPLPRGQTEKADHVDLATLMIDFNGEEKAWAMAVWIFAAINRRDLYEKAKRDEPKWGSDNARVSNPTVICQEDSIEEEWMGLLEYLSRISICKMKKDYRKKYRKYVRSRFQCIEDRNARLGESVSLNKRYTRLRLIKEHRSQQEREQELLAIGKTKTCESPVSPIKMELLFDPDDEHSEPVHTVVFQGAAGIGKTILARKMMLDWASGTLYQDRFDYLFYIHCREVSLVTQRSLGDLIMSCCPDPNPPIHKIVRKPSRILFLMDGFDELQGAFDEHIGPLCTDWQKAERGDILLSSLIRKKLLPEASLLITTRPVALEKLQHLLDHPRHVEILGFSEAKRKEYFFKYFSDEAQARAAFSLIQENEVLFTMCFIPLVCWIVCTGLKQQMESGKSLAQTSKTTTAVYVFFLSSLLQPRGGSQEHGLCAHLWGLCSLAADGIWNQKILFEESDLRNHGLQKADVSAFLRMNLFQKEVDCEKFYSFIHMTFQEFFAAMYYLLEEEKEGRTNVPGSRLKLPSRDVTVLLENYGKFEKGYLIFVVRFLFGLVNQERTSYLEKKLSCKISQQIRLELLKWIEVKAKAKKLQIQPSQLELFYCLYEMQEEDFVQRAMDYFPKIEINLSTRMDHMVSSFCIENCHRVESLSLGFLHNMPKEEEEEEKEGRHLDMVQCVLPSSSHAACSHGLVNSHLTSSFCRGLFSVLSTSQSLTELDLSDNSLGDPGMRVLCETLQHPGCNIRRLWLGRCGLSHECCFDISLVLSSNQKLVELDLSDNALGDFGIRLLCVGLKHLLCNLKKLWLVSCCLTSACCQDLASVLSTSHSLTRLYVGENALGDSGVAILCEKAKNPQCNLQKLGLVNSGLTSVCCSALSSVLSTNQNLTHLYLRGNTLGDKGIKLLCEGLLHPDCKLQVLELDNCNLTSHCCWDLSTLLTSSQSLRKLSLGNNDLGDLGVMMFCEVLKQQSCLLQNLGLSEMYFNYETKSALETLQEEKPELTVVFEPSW
Kind of experiment: IL-1β TR-FRET assay (THP-1 cells differentiated to macrophages with IFN-γ, LPS primed, ATP activated; HTRF). It is filed as cell-based. The following applies: THP-1 macrophages, 50 ng/mL LPS priming, compound 30 min, 20 mM ATP 2 hours. A digest of the protocol:
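IL-1β release was read by HTRF after 16–24 h antibody incubation at room temperature, using supernatants from THP-1-derived macrophages (IFN-γ 25 ng/mL, LPS 50 ng/mL priming) given compound 30 min and then 20 mM ATP for 2 h. % inhibition versus concentration was fitted logistically for IC50.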
(Time-resolved FRET reads energy transfer from a long-lived donor to a nearby acceptor.)

Molecules are shown by their SMILES.

Consider `COCc1cc(C)cc(O)c1-n1cc2sc(N[C@@H]3C[C@@H](F)CN(C)C3)nc2n1` [Example 177, 2-(5-{[(3R,5R)-5-fluoro-1-methylpiperidin-3-yl]amino}-2H-pyrazolo[3,4-d][1,3]thiazol-2-yl)-3-(methoxymethyl)-5-methylphenol], for which the IC50 in the experiment on NF-κB pathway was > 30 µM; against NLRP3 inflammasome, 0.04 µM.

`Cc1cc(C)c(-n2cc3sc(N[C@H]4C[C@@H](F)CN(C)C4)nc3n2)c(O)c1` [Example 178, 2-(5-{[(3S,5R)-5-fluoro-1-methylpiperidin-3-yl]amino}-2H-pyrazolo[3,4-d][1,3]thiazol-2-yl)-3,5-dimethylphenol]: the 50% inhibitory concentration (IC50) in the experiment on NF-κB pathway is > 30 µM; at NLRP3 inflammasome it was 8.4 µM.

For `Cc1cc(C)c(-n2cc3sc(N[C@@H]4C[C@H](F)CN(C)C4)nc3n2)c(O)c1` [Example 179, 2-(5-{[(3R,5S)-5-fluoro-1-methylpiperidin-3-yl]amino}-2H-pyrazolo[3,4-d][1,3]thiazol-2-yl)-3,5-dimethylphenol], the values for the half-maximal inhibitory concentration (IC50) in the experiment on NF-κB pathway and against NLRP3 inflammasome were > 30 µM and 0.094 µM, respectively.

Turning to `Cc1cc(C)c(-n2cc3sc(N[C@H]4C[C@H](F)CN(C)C4)nc3n2)c(O)c1` [Example 180, 2-(5-{[(3S,5S)-5-fluoro-1-methylpiperidin-3-yl]amino}-2H-pyrazolo[3,4-d][1,3]thiazol-2-yl)-3,5-dimethylphenol], the IC50 in the experiment with NF-κB pathway was > 30 µM; on NLRP3 inflammasome, 4.2 µM.

With `CCNc1nc2nn(-c3c(C)cc(C)cc3O)cc2s1` [Example 181, 2-[5-(ethylamino)-2H-pyrazolo[3,4-d][1,3]thiazol-2-yl]-3,5-dimethylphenol], the results for the IC50 with NF-κB pathway and against NLRP3 inflammasome were > 30 µM and 0.34 µM, respectively.

For orientation: IC50 means the concentration needed to halve the response being measured. Read a low IC50 as greater potency in that assay.

The record behind these values is patent publication US20260365671A1, “HETEROCYCLIC COMPOUND” (Takeda Pharmaceutical Company Limited, priority 2022, published 2026).
